{"source": "paper PMC8881610", "about": "(Nature Communications, 2022)", "key": {"GCGR [1]": {"molecular_target": "GCGR (Homo sapiens, UniProt P47871, D195A/Q142A/R199A)", "sequence (P47871 26-477 Q142A/D195A/R199A)": "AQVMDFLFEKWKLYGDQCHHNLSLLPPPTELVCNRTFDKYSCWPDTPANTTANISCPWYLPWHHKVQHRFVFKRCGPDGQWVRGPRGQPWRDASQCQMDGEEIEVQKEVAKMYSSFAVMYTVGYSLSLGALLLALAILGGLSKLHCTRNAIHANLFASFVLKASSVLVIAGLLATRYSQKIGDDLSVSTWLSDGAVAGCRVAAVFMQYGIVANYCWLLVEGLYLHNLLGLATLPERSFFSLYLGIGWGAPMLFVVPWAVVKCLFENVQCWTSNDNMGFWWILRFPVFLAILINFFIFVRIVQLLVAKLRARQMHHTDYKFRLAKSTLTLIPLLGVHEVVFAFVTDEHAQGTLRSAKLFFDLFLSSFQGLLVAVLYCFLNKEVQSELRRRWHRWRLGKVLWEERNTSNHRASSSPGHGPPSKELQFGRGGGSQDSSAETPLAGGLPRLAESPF", "test": "Whole-cell binding assay, competition with 125I-GCG", "design": "V5 (C); 6×His (C); expressed in transfected cells; host or cells: CHO-K1", "conditions": "GCGR Q142A/D195A/R199A, CHO-K1", "in_short": "(§1)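 CHO-K1 cells transiently transfected with WT or mutant receptor constructs, washed in F-12 with 0.1% BSA or casein/33 mM HEPES and incubated 2 h at 37 °C. Bound radioactivity counted after Triton lysis; data normalized to WT and fitted to a three-parameter logistic equation.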"}, "GCGR [2]": {"molecular_target": "GCGR (Homo sapiens, UniProt P47871, Y202A)", "sequence (P47871 26-477 Y202A)": "as the sequence (P47871 26-477 Q142A/D195A/R199A) above, with A117Q, A170D, A174R, Y177A counted along it", "test": "Whole-cell binding assay, competition with 125I-GCG", "design": "V5 (C); 6×His (C); expressed in transfected cells; host or cells: CHO-K1", "conditions": "GCGR Y202A, CHO-K1", "in_short": "as §1"}, "GCGR [3]": {"molecular_target": "GCGR (Homo sapiens, UniProt P47871, W215A)", "sequence (P47871 26-477 W215A)": "as the sequence (P47871 26-477 Q142A/D195A/R199A) above, with A117Q, A170D, A174R, W190A counted along it", "test": "Whole-cell binding assay, competition with 125I-GCG", "design": "V5 (C); 6×His (C); expressed in transfected cells; host or cells: CHO-K1", "conditions": "GCGR W215A, CHO-K1", "in_short": "as §1"}, "GCGR [4]": {"molecular_target": "GCGR (Homo sapiens, UniProt P47871, R199A)", "sequence (P47871 26-477 R199A)": "as the sequence (P47871 26-477 Q142A/D195A/R199A) above, with A117Q, A170D counted along it", "test": "Whole-cell binding assay, competition with 125I-GCG", "design": "V5 (C); 6×His (C); expressed in transfected cells; host or cells: CHO-K1", "conditions": "GCGR R199A, CHO-K1", "in_short": "as §1"}, "GLP-1R [5]": {"molecular_target": "GLP-1R (Homo sapiens, UniProt P43220, D198A/K202A/Y145A)", "sequence (P43220 24-463 Y145A/D198A/K202A)": "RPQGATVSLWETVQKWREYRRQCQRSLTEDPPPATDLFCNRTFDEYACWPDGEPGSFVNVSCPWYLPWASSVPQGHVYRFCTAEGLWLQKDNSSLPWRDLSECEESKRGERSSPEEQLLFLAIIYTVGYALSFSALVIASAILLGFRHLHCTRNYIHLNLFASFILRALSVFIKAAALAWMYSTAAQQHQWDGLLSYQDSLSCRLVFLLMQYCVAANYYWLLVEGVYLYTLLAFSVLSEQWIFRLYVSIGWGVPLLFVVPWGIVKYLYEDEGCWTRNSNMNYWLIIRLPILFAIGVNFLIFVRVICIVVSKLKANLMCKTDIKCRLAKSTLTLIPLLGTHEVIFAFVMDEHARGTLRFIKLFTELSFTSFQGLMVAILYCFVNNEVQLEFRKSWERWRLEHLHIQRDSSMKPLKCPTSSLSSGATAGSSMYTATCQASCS", "test": "cAMP accumulation assay, GLP-1R WT, mutant or modified constructs", "assay_type": "cell-based", "design": "Flag; expressed in transfected cells; host or cells: HEK293T", "conditions": "GLP-1R Y145A/D198A/K202A, HEK293T", "in_short": "(§2)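 HEK293T cells transiently expressing wild-type, mutant or modified human GLP-1R (HA signal peptide constructs) were used. Cells were stimulated with peptide agonists for 40 min at room temperature in HBSS with 0.5 mM IBMX and 0.1% BSA or casein. cAMP was quantified by LANCE Ultra TR-FRET (620/650 nm).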"}, "GLP-1R [6]": {"molecular_target": "GLP-1R (Homo sapiens, UniProt P43220, R134A)", "sequence (P43220 24-463 R134A)": "as the sequence (P43220 24-463 Y145A/D198A/K202A) above, with R111A, A122Y, A175D, A179K counted along it", "test": "cAMP accumulation assay, GLP-1R WT, mutant or modified constructs", "assay_type": "cell-based", "design": "Flag; expressed in transfected cells; host or cells: HEK293T", "conditions": "GLP-1R R134A, HEK293T", "in_short": "as §2"}, "GLP-1R [7]": {"molecular_target": "GLP-1R (Homo sapiens, UniProt P43220, Q210A)", "sequence (P43220 24-463 Q210A)": "as the sequence (P43220 24-463 Y145A/D198A/K202A) above, with A122Y, A175D, A179K, Q187A counted along it", "test": "cAMP accumulation assay, GLP-1R WT, mutant or modified constructs", "assay_type": "cell-based", "design": "Flag; expressed in transfected cells; host or cells: HEK293T", "conditions": "GLP-1R Q210A, HEK293T", "in_short": "as §2"}, "GLP-1R [8]": {"molecular_target": "GLP-1R (Homo sapiens, UniProt P43220, Y205A)", "sequence (P43220 24-463 Y205A)": "as the sequence (P43220 24-463 Y145A/D198A/K202A) above, with A122Y, A175D, A179K, Y182A counted along it", "test": "cAMP accumulation assay, GLP-1R WT, mutant or modified constructs", "assay_type": "cell-based", "design": "Flag; expressed in transfected cells; host or cells: HEK293T", "conditions": "GLP-1R Y205A, HEK293T", "in_short": "as §2"}, "GLP-1R [9]": {"molecular_target": "GLP-1R (Homo sapiens, UniProt P43220, W91A)", "sequence (P43220 24-463 W91A)": "as the sequence (P43220 24-463 Y145A/D198A/K202A) above, with W68A, A122Y, A175D, A179K counted along it", "test": "cAMP accumulation assay, GLP-1R WT, mutant or modified constructs", "assay_type": "cell-based", "design": "Flag; expressed in transfected cells; host or cells: HEK293T", "conditions": "GLP-1R W91A, HEK293T", "in_short": "as §2"}, "[10]": {"conditions": "read-out: binding pIC50 (converted)"}, "[11]": {"conditions": "read-out: cAMP pEC50 (converted)"}}}
{"smiles": "CCCCCCCCCCCCCCCC(=O)N[C@@H](CCC(=O)NCCCC[C@H](NC(=O)[C@H](CC(=O)O)NC(=O)[C@H](CO)NC(=O)[C@@H](NC(=O)[C@H](Cc1ccccc1)NC(=O)[C@@H](NC(=O)CNC(=O)[C@H](CCC(N)=O)NC(=O)C(C)(C)NC(=O)[C@@H](N)Cc1c[nH]cn1)[C@@H](C)O)[C@@H](C)O)C(=O)N[C@@H](CO)C(=O)N[C@@H](CCCCN)C(=O)N[C@@H](Cc1ccc(O)cc1)C(=O)N[C@@H](CC(C)C)C(=O)N[C@@H](CC(=O)O)C(=O)N[C@@H](CCC(=O)O)C(=O)N[C@@H](CCCNC(=N)N)C(=O)N[C@@H](C)C(=O)N[C@@H](C)C(=O)N[C@@H](CCC(N)=O)C(=O)N[C@@H](CC(=O)O)C(=O)N[C@@H](Cc1ccccc1)C(=O)N[C@H](C(=O)N[C@@H](CCC(N)=O)C(=O)N[C@@H](Cc1c[nH]c2ccccc12)C(=O)N[C@@H](CC(C)C)C(=O)N[C@@H](CC(C)C)C(=O)N[C@@H](CC(=O)O)C(=O)NCC(=O)NCC(=O)N1CCC[C@H]1C(=O)N[C@@H](CO)C(=O)N[C@@H](CO)C(=O)NCC(=O)N[C@@H](C)C(=O)N1CCC[C@H]1C(=O)N1CCC[C@H]1C(=O)N1CCC[C@H]1C(=O)N[C@@H](CO)C(N)=O)C(C)C)C(=O)O", "note": "[Peptide 20]", "values": [{"measurement": "binding Span", "setting": "GCGR [1]", "value": "24.37 ± 1.80", "unit": "% WT"}, {"measurement": "IC50", "setting": "GCGR [1]; [10]", "value": 30.2, "unit": "nM"}, {"measurement": "binding Span", "setting": "GCGR [2]", "value": "5.12 ± 1.71", "unit": "% WT"}, {"measurement": "IC50", "setting": "GCGR [2]; [10]", "value": 18.6, "unit": "nM"}, {"measurement": "binding Span", "setting": "GCGR [3]", "value": "7.72 ± 2.74", "unit": "% WT"}, {"measurement": "IC50", "setting": "GCGR [3]; [10]", "value": 145, "unit": "nM"}, {"measurement": "binding Span", "setting": "GCGR [4]", "value": "59.87 ± 5.43", "unit": "% WT"}, {"measurement": "IC50", "setting": "GCGR [4]; [10]", "value": 178, "unit": "nM"}, {"measurement": "EC50", "setting": "GLP-1R [5]; [11]", "value": 0.0389, "unit": "nM"}, {"measurement": "Emax", "setting": "GLP-1R [5]; HEK-293T", "value": "99.9 ± 1.67", "unit": "%"}, {"measurement": "EC50", "setting": "GLP-1R [6]; [11]", "value": 0.00661, "unit": "nM"}, {"measurement": "Emax", "setting": "GLP-1R [6]; HEK-293T", "value": "101 ± 1.08", "unit": "%"}, {"measurement": "EC50", "setting": "GLP-1R [7]; [11]", "value": 0.00562, "unit": "nM"}, {"measurement": "Emax", "setting": "GLP-1R [7]; HEK-293T", "value": "102 ± 1.27", "unit": "%"}, {"measurement": "EC50", "setting": "GLP-1R [8]; [11]", "value": 0.00851, "unit": "nM"}, {"measurement": "Emax", "setting": "GLP-1R [8]; HEK-293T", "value": "101 ± 1.08", "unit": "%"}, {"measurement": "EC50", "setting": "GLP-1R [9]; [11]", "value": 0.00603, "unit": "nM"}, {"measurement": "Emax", "setting": "GLP-1R [9]; HEK-293T", "value": "100 ± 1.33", "unit": "%"}]}
